From patent US20250101041A1, “POSITIVE ALLOSTERIC MODULATORS OF THE MUSCARINIC ACETYLCHOLINE RECEPTOR M4” (Vanderbilt University, priority 2022, published 2025)

Biological target: T1, human mAChR M4 (Homo sapiens, UniProt P08173)
T1 construct: expressed in transfected cells; host or cells: CHO-K1 (American Type Culture Collection), stably expressing hM4 and Gqi5
T1 sequence (P08173 1-479): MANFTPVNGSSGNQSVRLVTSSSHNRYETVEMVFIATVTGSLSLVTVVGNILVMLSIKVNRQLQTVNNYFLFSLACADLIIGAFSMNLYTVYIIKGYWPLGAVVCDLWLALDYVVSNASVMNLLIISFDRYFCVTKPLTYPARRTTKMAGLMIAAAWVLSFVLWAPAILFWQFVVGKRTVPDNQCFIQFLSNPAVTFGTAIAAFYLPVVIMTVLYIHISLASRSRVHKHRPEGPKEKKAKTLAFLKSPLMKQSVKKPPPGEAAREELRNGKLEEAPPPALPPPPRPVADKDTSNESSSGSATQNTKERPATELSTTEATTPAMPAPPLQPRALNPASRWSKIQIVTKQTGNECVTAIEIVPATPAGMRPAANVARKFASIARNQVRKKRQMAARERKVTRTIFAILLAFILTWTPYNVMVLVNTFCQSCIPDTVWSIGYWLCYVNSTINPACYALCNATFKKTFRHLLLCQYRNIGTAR
Test: mAChR M4 cell-based functional assay: calcium mobilization (Fluo-4, FDSS), potentiation of EC20 acetylcholine response in hM4-Gqi5 CHO-K1 cells
Conditions: human M4; for Emax at 30 µM: CHO-K1, % ACh maximum at 30 μM; for EC50: potentiation of EC20 acetylcholine response, calcium mobilization
Procedure, shortened: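 CHO-K1 cells stably co-expressing human M4 and chimeric Gqi5, loaded with Fluo-4 AM (50 min, 37 °C). Compounds in 11-point 1:3 series added first; EC20 acetylcholine added at 144 s and again at 230 s. Calcium read on FDSS at 1 Hz; EC50 and Emax from four-parameter logistic fit of potentiated EC20 response.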

Row | Emax at 30 µM | EC50 | Compound
1 | 96% | 181 nM | Cc1cc2ncc(Cl)c(=O)n2nc1N1CCc2ncc(C(F)(F)F)cc2C1 [Compound 1-4, 3-chloro-8-methyl-7-(3-(trifluoromethyl)-7,8-dihydro-1,6-napthyridin-6(5H)-yl)-4H-pyrimido[1,2-b]pyridazin-4-one]
2 | 75% | 1170 nM | Cc1cc2nccc(=O)n2nc1N1CCc2ncc(N3CCOC(c4ccncc4)C3)cc2C1 (stereo not shown) [Compound 2-93, 8-methyl-7-(3-(2-(pyridin-4-yl)morpholino)-7,8-dihydro-1,6-naphthyridin-6(5H)-yl)-4H-pyrimido[1,2-b]pyridazin-4-one]
3 | 82% | 185 nM | Cc1cc2nc(C(C)(C)O)cc(=O)n2nc1N1CCc2ncc(C(F)(F)F)cc2C1 [Compound 1-195, 2-(2-hydroxypropan-2-yl)-8-methyl-7-(3-(trifluoromethyl)-7,8-dihydro-1,6-naphthyridin-6(5H)-yl)-4H-pyrimido[1,2-b] pyridazin-4-one]
4 | 87% | 200 nM | Cc1cc2nc(C(=O)NCc3cncs3)cc(=O)n2nc1N1CCc2ncc(C(F)(F)F)cc2C1 [Compound 1-42, 8-methyl-4-oxo-N-(thiazol-5-ylmethyl)-7-(3-(trifluoromethyl)-7,8-dihydro-1,6-naphthyridin-6(5H)-yl)-4H-pyrimido[1,2-b]pyridazine-2-carboxamide]
5 | 65% | 735 nM | COc1ccccc1-c1cnc2c(c1)CN(c1nn3c(=O)cc(C)nc3cc1C)CC2 [Compound 1-233, 7-(3-(2-methoxyphenyl)-7,8-dihydro-1,6-naphthyridin-6(5H)-yl)-2,8-dimethyl-4H-pyrimido[1,2-b]pyridazin-4-one]
6 | 51% | 1980 nM | Cc1cc2nccc(=O)n2nc1N1CCc2ncc(-c3cccc4[nH]cc(C)c34)cc2C1 [Compound 1-435, 8-methyl-7-(3-(3-methyl-1H-indol-4-yl)-7,8-dihydro-1,6-naphthyridin-6(5H)-yl)-4H-pyrimido[1,2-b]pyridazin-4-one]
7 | 46% | 1250 nM | COc1ccc(-c2cnc3c(c2)CN(c2nn4c(=O)cc(C(F)(F)F)nc4cc2C)CC3)cn1 [Compound 1-75, 7-(3-(6-methoxypyridin-3-yl)-7,8-dihydro-1,6-naphthyridin-6(5H)-yl)-8-methyl-2-(trifluoromethyl)-4H-pyrimido[1,2-b]pyridazin-4-one]
8 | 85% | 574 nM | Cc1cc(F)c(F)cc1-c1cnc2c(c1)CN(c1nn3c(=O)ccnc3c(C)c1C)CC2 [Compound 1-446, 7-(3-(4,5-difluoro-2-methylphenyl)-7,8-dihydro-1,6-naphthyridin-6(5H)-yl)-8,9-dimethyl-4H-pyrimido[1,2-b]pyridazin-4-one]
9 | 91% | 79 nM | Cc1cc2nccc(=O)n2nc1N1CCc2ncc(Nc3ccc(F)cc3)cc2C1 [Compound 2-63, 7-(3-((4-fluorophenyl)amino)-7,8-dihydro-1,6-naphthyridin-6(5H)-yl)-8-methyl-4H-pyrimido[1,2-b]pyridazin-4-one]
10 | 78% | 313 nM | Cc1c(N2CCc3ncc(-c4cnn(CCN(C)C)c4)cc3C2)nn2c(=O)cc(C(F)F)nc2c1C [Compound 1-308, 2-(difluoromethyl)-7-(3-(1-(2-(dimethylamino)ethyl)-1H-pyrazol-4-yl)-7,8-dihydro-1,6-naphthyridin-6(5H)-yl)-8,9-dimethyl-4H-pyrimido[1,2-b]pyridazin-4-one]
11 | 70% | 631 nM | Cc1cc(F)c(F)c(-c2cnc3c(c2)CN(c2nn4c(=O)cc(C)nc4cc2C)CC3)c1 [Compound 1-252, 7-(3-(2,3-difluoro-5-methylphenyl)-7,8-dihydro-1,6-naphthyridin-6(5H)-yl)-2,8-dimethyl-4H-pyrimido[1,2-b]pyridazin-4-one]
12 | 83% | 647 nM | COCc1cc(=O)n2nc(N3CCc4ncc(-c5cc(F)ccn5)cc4C3)c(C)cc2n1 [Compound 1-383, 7-(3-(4-fluoropyridin-2-yl)-7,8-dihydro-1,6-naphthyridin-6(5H)-yl)-2-(methoxymethyl)-8-methyl-4H-pyrimido[1,2-b] pyridazin-4-one]
13 | 71% | 311 nM | COCc1cc(=O)n2nc(N3CCc4ncc(-c5cnc(F)cc5C)cc4C3)c(C)cc2n1 [Compound 1-327, 7-(3-(6-fluoro-4-methylpyridin-3-yl)-7,8-dihydro-1,6-naphthyridin-6(5H)-yl)-2-(methoxymethyl)-8-methyl-4H-pyrimido[1,2-b]pyridazin-4-one]
14 | 89% | 208 nM | Cc1cc2nccc(=O)n2nc1N1CCc2ncc(-c3cnn(C)c3C(F)F)cc2C1 [Compound 1-413, 7-(3-(5-(difluoromethyl)-1-methyl-1H-pyrazol-4-yl)-7,8-dihydro-1,6-naphthyridin-6(5H)-yl)-8-methyl-4H-pyrimido[1,2-b]pyridazin-4-one]
15 | 98% | 324 nM | COc1cncc(Nc2cnc3c(c2)CN(c2nn4c(=O)ccnc4cc2C)CC3)c1 [Compound 2-137, 7-(3-((5-methoxypyridin-3-yl)amino)-7,8-dihydro-1,6-naphthyridin-6(5H)-yl)-8-methyl-4H-pyrimido[1,2-b]pyridazin-4-one]
16 | 70% | 747 nM | Cc1cc(=O)n2nc(N3CCc4ncc(-c5ccc6nccn6c5)cc4C3)c(C)cc2n1 [Compound 1-220, 7-(3-(imidazo[1,2-a]pyridin-6-yl)-7,8-dihydro-1,6-naphthyridin-6(5H)-yl)-2,8-dimethyl-4H-pyrimido[1,2-b]pyridazin-4-one]
17 | 69% | 640 nM | Cc1ccc(-c2cnc3c(c2)CN(c2nn4c(=O)cc(C(F)F)nc4c(C)c2C)CC3)c(C)c1 [Compound 1-164, 2-(difluoromethyl)-7-(3-(2,4-dimethylphenyl)-7,8-dihydro-1,6-naphthyridin-6(5H)-yl)-8,9-dimethyl-4H-pyrimido[1,2-b]pyridazin-4-one]
18 | 94% | 7 nM | [2H]C1([2H])Cc2ncc(Nc3ccncc3F)cc2C([2H])([2H])N1c1nn2c(=O)ccnc2cc1C [Compound 2-164, 7-(3-((3-fluoropyridin-4-yl)amino)-7,8-dihydro-1,6-naphthyridin-6(5H)-yl-5,5,7,7-d4)-8-methyl-4H-pyrimido[1,2-b]pyridazin-4-one]
19 | 61% | 1280 nM | CC(=O)N1CC=C(c2cnc3c(c2)CN(c2nn4c(=O)ccnc4cc2C)CC3)CC1 [Compound 1-388, 7-(3-(1-acetyl-1,2,3,6-tetrahydropyridin-4-yl)-7,8-dihydro-1,6-naphthyridin-6(5H)-yl)-8-methyl-4H-pyrimido[1,2-b]pyridazin-4-one]
20 | 87% | 76 nM | Cc1cc(=O)n2nc(N3CCc4ncc(-c5cccs5)cc4C3)c(C)cc2n1 [Compound 1-297, 2,8-dimethyl-7-(3-(thiophen-2-yl)-7,8-dihydro-1,6-naphthyridin-6(5H)-yl)-4H-pyrimido[1,2-b]pyridazin-4-one]
21 | 81% | 300 nM | Cc1cc2nccc(=O)n2nc1N1CCc2ncc(C(F)(F)F)cc2C1 [Compound 1-1, 8-methyl-7-(3-(trifluoromethyl)-7,8-dihydro-1,6-naphthyridin-6(5H)-yl)-4H-pyrimido[1,2-b]pyridazin-4-one]
22 | 65% | 749 nM | Cc1cc(=O)n2nc(N3CCc4ncc(-c5cnc6ccccc6c5)cc4C3)c(C)c(C)c2n1 [Compound 1-120, 2,8,9-trimethyl-7-(3-(quinolin-3-yl)-7,8-dihydro-1,6-naphthyridin-6(5H)-yl)-4H-pyrimido[1,2-b]pyridazin-4-one]
23 | 83% | 2760 nM | Cc1cc2nccc(=O)n2nc1N1CCc2ncc(NS(C)(=O)=O)cc2C1 [Compound 2-117, N-(6-(8-methyl-4-oxo-4H-pyrimido[1,2-b]pyridazin-7-yl)-5,6,7,8-tetrahydro-1,6-naphthyridin-3-yl)methanesulfonamide]
24 | 63% | 130 nM | Cc1cc2nccc(=O)n2nc1N1CCc2ncc(-c3cncc(F)c3C)cc2C1 [Compound 1-399, 7-(3-(5-fluoro-4-methylpyridin-3-yl)-7,8-dihydro-1,6-naphthyridin-6(5H)-yl)-8-methyl-4H-pyrimido[1,2-b]pyridazin-4-one]
25 | 109% | 66 nM | Cc1ccc(-c2cnc3c(c2)CN(c2nn4c(=O)cc(C5CC5)nc4cc2C)CC3)cn1 [Compound 1-79, 2-cyclopropyl-8-methyl-7-(3-(6-methylpyridin-3-yl)-7,8-dihydro-1,6-naphthyridin-6(5H)-yl)-4H-pyrimido[1,2-b]pyridazin-4-one]
26 | 106% | 94 nM | Cc1nc2c(C)c(C)c(N3CCc4ncc(C(F)(F)F)cc4C3)nn2c(=O)c1F [Compound 1-18, 3-fluoro-2,8,9-trimethyl-7-(3-(trifluoromethyl)-7,8-dihydro-1,6-naphthyridin-6(5H)-yl)-4H-pyrimido[1,2-b]pyridazin-4-one]
